Measured values: patent US20040044032A1, “Farnesyl protein transfer inhibitors for the treatment of inflammatory bowel disease” (priority 2003, published 2004)
Read-outs that look alike come from different tables or passages of the source.

Key:
[1] = tested on: DSS-induced colitis in mice; assay: Prevention of DSS-induced colitis in mice, repeat study with lower PO doses in 0.1 N HCl; assay type: in vivo; conditions: for weight DAY 0: Day 0 (baseline); for % Inh. Colonic Shortening / % of Normal Length Shortening / DAI mean ± SEM / DAINWT mean ± SEM / Mean Colon Length Cm ± SEM: 5% DSS days 0-7
From the text: (§1) All mice were weighed daily and observed for signs of gross toxicity and behavioural changes, consistency of stool and presence of gross blood during the study. On Day 7, all animals were euthanized by CO2 inhalation and necropsied. Following euthanasia, a stool sample was obtained from the colon of each animal and tested for occult blood (Quik-Cult, Laboratory Diagnostics Co., Morganville, N.J.). The colons were then removed and the length from the colo-cecal junction to the end of the distal rectum was measured. A segment of colon was collected from each animal and preserved in 10% formalin.
(§2) For each group, the disease activity index (DAI) was determined by evaluating changes in weight, Hemoccult positivity or gross bleeding and stool consistency using the following system.
(§3) Data was analyzed using analysis of variance (single factor). Statistically methods included the Mann-Whitney test, ANOVA and Turkey-Kramer Multiple Comparisons test.
(§4) Statistical significance between test and control groups was established at a probability of p<0.05.
In view of the above results the experiment was repeated with lower doses of compound 75. The above procedure was followed with the following groups
Individual doses were calculated based on daily body weights. Prior to administration, 50 mg of Compound 75 was diluted with 10 milliliters of 0.1N HCl (50 mg/kg for Group 5). The resulting solution was then further diluted twice, with 5 ml increments and used for the 25 (Group 4) and 12.5 (Group 3) mg/kg dose levels. The 0.1 N HCl was used for Groups 1 and 2 and constituted the vehicle control. Groups 2 through 5 were given a 5% w/w solution of dextran sulfate sodium (DSS) in distilled water substituted for their normal water supply (approximately 10 ml:mouse/day) from Days 0 through 7. Each group of animals received the appropriate amount of the test substance, as described above, by intubation using a stainless steel ball-tipped gavage needle attached to an appropriate syringe.

[2] = tested on: DSS-induced colitis in mice; assay type: in vivo; conditions: for Mean Weight (±SEM) DAY 0: Day 0 (baseline); for Mean Colon Length Cm ± SEM: necropsy Day 7; for deaths: 10 mice/group
From the text: The purpose of this study was to identify, characterize and document the preventative actions of compound 75 above, namely (+)-6-[amino(4-chlorophenyl) (1-methyl-1H-imidazol-5-yl)methyl]-4-(3-chlorophenyl)-1-methyl-2(1H)-quinolinone, a compound of formulae (I), in an experimental model of inflammatory bowel disease in mice.
A group of female Swiss-Webster mice was received from Ace Animals, Inc., Boyertown, Pa. The animals were grouped housed (5 mice/cage) in plastic cages with water absorbent bedding. […] The animals were fed Purina Rodent Chow #5012 and filtered tap water was supplied ad libitum by automatic watering system (during acclimation).
Following an acclimation period of 9 days, 40 healthy mice were selected for this study. The test animals were distributed (10 mice/group) into each one of the 4 test groups described below. There were no statistical significant differences between the mean group body weights.
Individual doses were calculated based on daily body weights. Prior to administration, Compound 75 was mixed with the vehicle (Beta cyclodextrin (40%) in 0.1 N HCL). This mixture was further diluted with 0.1 N HCL. The resulting mixture was then used to prepare the dilutions for groups 3 and 4. A 20% solution of Beta cyclodextrin in 0.1 N HCL was used for Groups 1 and 2 and constituted the vehicle control. Groups 2 through 4 were given a 5% w/w solution of dextran sulfate sodium (DSS) in distilled water substituted for their normal water supply (approximately 10 ml/mouse/day) from Days 0 through 6. Each group of animals received the appropriate amount of the test substance, as described above, by intubation using a stainless steel ball-tipped gavage needle attached to an appropriate syringe.
as §1, §2, §3, §4

[3] = 25 mg/kg PO bid days 0-6, 5% DSS
[4] = 50 mg/kg PO bid days 0-6, 5% DSS

## Cn1cncc1C(N)(c1ccc(Cl)cc1)c1ccc2c(c1)c(-c1cccc(Cl)c1)cc(=O)n2C (single isomer, unassigned; (+)) [Compound 75, (+)-6-[amino(4-chlorophenyl)(1-methyl-1H-imidazol-5-yl)methyl]-4-(3-chlorophenyl)-1-methyl-2(1H)-quinolinone]
[1]; 12.5 mg/kg PO + DSS
  weight DAY 0: 23.6 ± 0.3
  % change (weight) DAY 5: +1.3 ± 1.0%
  weight DAY 5: 23.9 ± 0.4
  % change (weight) DAY 6: 0.0 ± 1.0%
  weight DAY 6: 23.6 ± 0.4
  % change (weight) DAY 7: +1.3 ± 1.0%
  weight DAY 7: 23.9 ± 0.4
[1]; 12.5 mg/kg PO daily
  % Inh. Colonic Shortening: 65%
  % of Normal Length Shortening: 89.6%
  DAI mean ± SEM: 1.57 ± 0.17
  DAINWT mean ± SEM: 2.25 ± 0.25
  Mean Colon Length Cm ± SEM: 10.0 ± 0.1 Cm
[1]; 25 mg/kg PO + DSS
  weight DAY 0: 24.2 ± 0.4
  weight DAY 5: 24.7 ± 0.6
  % change (weight) DAY 6: −1.2 ± 1.0%
  weight DAY 6: 23.9 ± 0.5
  % change (weight) DAY 7: +2.9 ± 1.0%
  weight DAY 7: 24.9 ± 0.5
[1]; 25 mg/kg PO
  % Inh. Colonic Shortening: 58%
  % of Normal Length Shortening: 88.7%
  DAI mean ± SEM: 1.53 ± 0.17
  DAINWT mean ± SEM: 2.30 ± 0.25
  Mean Colon Length Cm ± SEM: 9.9 ± 0.3 Cm
[1]; 50 mg/kg PO + DSS
  weight DAY 0: 23.9 ± 0.3
  % change (weight) DAY 5: −0.7 ± 1.0%
  weight DAY 5: 23.9 ± 0.3
  % change (weight) DAY 6: −1.6 ± 1.0%
  weight DAY 6: 23.5 ± 0.3
  % change (weight) DAY 7: −0.3 ± 2.0%
  weight DAY 7: 23.8 ± 0.3
[1]; 50 mg/kg PO
  % Inh. Colonic Shortening: 52%
  % of Normal Length Shortening: 87.0%
  DAI mean ± SEM: 1.70 ± 0.18
  DAINWT mean ± SEM: 2.30 ± 0.24
  Mean Colon Length Cm ± SEM: 9.7 ± 0.2 Cm
[1]; 12.5, 25, 50 mg/kg PO
  deaths during the duration of the experiment: No deaths
[1]; PO daily, lowest dose tested
  dose of maximal effectiveness on prevention of colonic shortening: 12.5 mg/kg
[1]; all doses (12.5, 25, 50 mg/kg PO)
  protection based on DAI and DAINWT: statistically significant protection
[2]; 25 mg/kg PO bid + DSS
  Mean Weight (±SEM) DAY 0: 25.1 ± 0.5 grams
  % weight change (±SEM) DAY 5: −8.3 ± 1.5%
  Mean Weight (±SEM) DAY 5: 23.0 ± 0.5 grams
  % weight change (±SEM) DAY 6: −8.7 ± 2.7%
  Mean Weight (±SEM) DAY 6: 22.9 ± 0.7 grams
  % weight change (±SEM) DAY 7: −9.6 ± 3.5%
  Mean Weight (±SEM) DAY 7: 22.7 ± 0.9 grams
[2]; [3]
  % of Normal Length Shortening: 82.0%
  Blood in Feces (%): 0%
  DAI mean ± SEM: 1.70 ± 0.26
  DAINWT Mean ± SEM (DAI without body weight parameter): 1.50 ± 0.22
  Mean Colon Length Cm ± SEM: 9.7 ± 0.3 Cm
[2]; 25 mg/kg dose
  deaths: 1
[2]; 50 mg/kg PO bid + DSS
  Mean Weight (±SEM) DAY 0: 25.6 ± 0.5 grams
  % weight change (±SEM) DAY 5: −9.5 ± 1.3%
  Mean Weight (±SEM) DAY 5: 23.1 ± 0.5 grams
  % weight change (±SEM) DAY 6: −8.8 ± 2.2%
  Mean Weight (±SEM) DAY 6: 23.3 ± 0.8 grams
  % weight change (±SEM) DAY 7: −9.2 ± 1.9%
  Mean Weight (±SEM) DAY 7: 23.2 ± 0.7 grams
[2]; [4]
  % of Normal Length Shortening: 77.9%
  Blood in Feces (%): 22%
  DAI mean ± SEM: 2.11 ± 0.25
  DAINWT Mean ± SEM (DAI without body weight parameter): 2.06 ± 0.28
  Mean Colon Length Cm ± SEM: 9.2 ± 0.1 Cm
[2]; 50 mg/kg dose
  deaths: 1
[2]; PO bid, 5% DSS
  prevention of colitis produced by 5% Dextran Sulfate Sodium: significant activity
[2]; any dose (25 and 50 mg/kg PO bid)
  protection against weight loss: No significant protection
[2]; dose levels of 25 and 50 mg/kg PO bid
  shortening of the colon produced by DSS: prevented
